Assay results reported in patent US9221833B2, “Antiviral compounds” (GILEAD PHARMASSET LLC, priority 2011, dated 2015).
pEC50: −log10 of the molar value. Where two headings read alike, the source gives them in different places.

Assays:
Format in all cases: cell-based, HCV
[1] = system: genotype 3a S52 strain NS5A gene; assay: Replicon assay, NS5A chimeric 1b Con1 replicon with 3a NS5A, transiently transfected Huh-Lunet cells; details: genotype 3a, read-out: 3a
Experimental: (§1) Evaluation of cell-based anti-HCV activity: Antiviral potency (EC50) was determined using a Renilla luciferase (RLuc)-based HCV replicon reporter assay. […] To perform the assay for genotype 2a (with M31 present in NS5A) or 2b, NS5A chimeric genotype 2a JFH-1 replicons that encodes a RLuc-Neo reporter and either genotype 2a J6 strain NS5A gene or genotype 2b MD2b-1 strain NS5A gene (both with M31 present) respectively, were either transiently transfected (t) into Huh-Lunet cells or were established as stably replicating replicon cells (s) is provided. Either cells were dispensed into 384-well plates for EC50 assays. To perform the assay for genotype 3 and 4, NS5A chimeric genotype 1b Con1 replicons that encodes a Pi-RLuc reporter and either genotype 3a S52 strain NS5A gene or genotype 4a ED43 strain NS5A gene respectively, were transiently transfected (t) into Huh-Lunet cells, which were subsequently dispensed into 384-well plates. Compounds were dissolved in DMSO at a concentration of 10 mM and diluted in DMSO either manually or using an automated pipeting instrument. Serially 3-fold diluted compounds were either manually mixed with cell culture media and added to the seeded cells or directly added to the cells using an automated instrument. […] 72 hours later, cells were lysed and Renilla luciferase activity quantified as recommended by the manufacturer (Promega-Madison, Wis.). Non-linear regression was performed to calculate EC50 values.

Q30R in genotype 1a NS5A = assay: Antiviral potency against resistance mutant, 1a Pi-Rluc replicon in Huh-7-derived cured-51 cells; details: genotype 1a Q30R resistance mutant, read-out: 1a Q30R
Experimental: as §1
To determine the antiviral potency (EC50) against resistance mutants, resistance mutations, including M28T, Q30R, Q30H, L31M, and Y93C in genotype 1a NS5A and Y93H in genotype 1b NS5A, were introduced individually into either 1a Pi-Rluc or 1b Pi-Rluc replicons by site directed mutagenesis. Replicon RNA of each resistant mutant was transiently transfected into Huh-7-derived cured-51 cells and antiviral potency was determined on these transfected cells as described above.

[2] = system: genotype 4a ED43 strain NS5A gene; assay: Replicon assay, NS5A chimeric 1b Con1 replicon with 4a NS5A, transiently transfected Huh-Lunet cells
Experimental: as §1, with “[…],” for “were transiently transfected (t) into Huh-Lunet cells,”

[3] = system: genotype 2b MD2b-1 strain NS5A gene (M31 present); assay: microbe, parasite or virus in culture
Experimental: as §1

[4] = system: genotype 2a JFH-1 replicon (L31 present in NS5A); assay: microbe, parasite or virus in culture; details: genotype 2a JFH replicon, read-out: 2a JFH
Experimental: as §1

[5] = system: genotype 1b Con1 replicon; assay: microbe, parasite or virus in culture; details: for pEC50: read-out: 1b; for EC50: Hepatitis C virus, read-out: 1b (nM)
Experimental: as §1

[6] = system: genotype 2a J6 strain NS5A gene (M31 present); assay: Replicon assay, NS5A chimeric 2a JFH-1 replicon with 2a J6 NS5A, transient (t) or stable (s), Huh-Lunet cells
Experimental: as §1

[7] = genotype 4a, EC50 range class, transiently transfected cells (t), if unavailable stably replicating cells (s), read-out: 4a
[8] = stably replicating cells (s), read-out: 4a (s)
[9] = genotype 2b, EC50 range class, transiently transfected cells (t), if unavailable stably replicating cells (s), read-out: 2b
[10] = stably replicating cells (s), read-out: 2b (s)
[11] = transiently transfected cells (t), read-out: 2b (t)
[12] = genotype 2a J6, EC50 range class, transiently transfected cells (t), if unavailable stably replicating cells (s), read-out: 2a J6
[13] = transiently transfected cells (t), read-out: 2a J6 (t)
[14] = transiently transfected cells (t), read-out: 4a (t)
[15] = stably replicating cells (s), read-out: 2a J6 (s)

With COC[C@H]1C[C@@H](c2ncc(-c3ccc4c(c3)COc3cc5c(ccc6nc([C@@H]7C[C@H]8C[C@H]8N7C(=O)[C@H](NC(=O)OC)c7ccccc7)[nH]c65)cc3-4)[nH]2)N(C(=O)[C@@H](NC(=O)OC)C(C)C)C1 [Example MV] the pEC50 ([1]; EC50 range class) was over 9.00, the pEC50 [1] was 10.96 and the pEC50 (Q30R in genotype 1a NS5A; EC50 range class) was over 9.00. For the same compound, the pEC50 (Q30R in genotype 1a NS5A) was 10.92, the pEC50 [2, 7] was over 9.00 and the pEC50 [2, 8] was 10.96. The pEC50 [3, 9] was over 9.00, the pEC50 [3, 10] was 10.39 and the pEC50 [3, 11] was 10.47. The pEC50 ([4]; EC50 range class) was over 9.00, the pEC50 [4] was 11.40 and the pEC50 [5] was 10.85. The pEC50 [6, 12] was over 9.00 and the pEC50 [6, 13] was 10.33.
Work on “dimethyl (2S,2′S)-1,1′-((2 S,2′S)-2,2′l-pyrrolidin-2-yl)-5H-naphtho[c,g]chromeno[8,9-d]imidazol-9-yl)-1H-imidazol-2-yl)pyrrolidin-1-yl))bis(3-methyl-1-oxobutane-2,1-diyl)dicarbamate [Example MC]” yielded a pEC50 ([1]; EC50 range class) of over 9.00, a pEC50 [1] of 11.40 and a pEC50 (Q30R in genotype 1a NS5A; EC50 range class) of over 9.00. For the same compound, the pEC50 (Q30R in genotype 1a NS5A) was 9.00, the pEC50 [2, 7] was over 9.00 and the pEC50 [2, 8] was 10.55. The pEC50 [2, 14] was 11.10, the pEC50 [3, 9] was over 9.00 and the pEC50 [3, 10] was 9.43. For the same compound, the pEC50 [3, 11] was 9.79, the pEC50 ([4]; EC50 range class) was over 9.00 and the pEC50 [4] was 11.40. The pEC50 [5] was 10.77, the pEC50 [6, 12] was 8.30 to 9.00 and the pEC50 [6, 15] was 8.45. The pEC50 [6, 13] was 8.94.
For COC(=O)N[C@H](C(=O)N1CCC[C@H]1c1ncc(-c2ccc3c(c2)COc2cc4c(cc2-3)CCc2[nH]c([C@@H]3CCCN3C(=O)[C@@H](NC(=O)OC)C(C)C)nc2-4)[nH]1)C(C)C [Example ME], the pEC50 ([1]; EC50 range class) was over 9.00, the pEC50 [1] was 10.82 and the pEC50 (Q30R in genotype 1a NS5A; EC50 range class) was 7.36 to 9.00. For the same compound, the pEC50 (Q30R in genotype 1a NS5A) was 8.60, the pEC50 [2, 7] was over 9.00 and the pEC50 [2, 8] was 10.54. For the same compound, the pEC50 [2, 14] was 10.80, the pEC50 [3, 9] was over 9.00 and the pEC50 [3, 10] was 9.15. For the same compound, the pEC50 [3, 11] was 9.70, the pEC50 ([4]; EC50 range class) was over 9.00 and the pEC50 [4] was 10.92. The pEC50 [5] was 10.31, the pEC50 [6, 12] was 8.30 to 9.00 and the pEC50 [6, 15] was 7.79. The pEC50 [6, 13] was 8.46.
COC[C@H]1C[C@@H](c2nc3ccc4cc5c(cc4c3[nH]2)OCc2cc(-c3cnc([C@@H]4C[C@H](C)CN4C(=O)[C@H](NC(=O)OC)c4ccccc4)[nH]3)ccc2-5)N(C(=O)[C@@H](NC(=O)OC)C(C)C)C1 [Example PF, methyl {1-[2-{9-[2-(1-{[(methoxycarbonyl)amino](phenyl)acetyl}-4-methylpyrrolidin-2-yl)-1H-imidazol-5-yl]-1,11-dihydroisochromeno[4′,3′:6,7]naphtho[1,2-d]imidazol-2-yl}-4-(methoxymethyl)pyrrolidin-1-yl]-3-methyl-1-oxobutan-2-yl}carbamate] gave an EC50 [5] of 0.044 nM.
For COC[C@H]1C[C@@H](c2nc3c([nH]2)-c2cc4c(cc2CC3)-c2ccc(-c3cnc([C@@H]5CCCN5C(=O)[C@@H](NC(=O)OC)C(C)C)[nH]3)cc2CO4)N(C(=O)[C@H](NC(=O)OC)c2ccccc2)C1 [Example MR, methyl{(1R)-2-[(2S,4S)-2-(9-{2-[(2S)-1-{(2S)-2-[(methoxycarbonyl)amino]-3-methylbutanoyl}pyrrolidin-2-yl)-1H-imidazol-5-yl]-1,11-dihydroisochromeno[4′,3′:6,7]-4,5-dihydro-naphtho[1,2-d]imidazol-2-yl}-(methoxymethyl)pyrrolidin-1-yl]-2-oxo-1-phenylethyl}carbamate], the pEC50 ([1]; EC50 range class) was over 9.00, the pEC50 [1] was 10.11 and the pEC50 (Q30R in genotype 1a NS5A; EC50 range class) was over 9.00. The pEC50 (Q30R in genotype 1a NS5A) was 9.89, the pEC50 [2, 7] was over 9.00 and the pEC50 [2, 14] was 10.35. It also gave a pEC50 [3, 9] of over 9.00, a pEC50 [3, 10] of 10.28 and a pEC50 [3, 11] of 10.41. The pEC50 ([4]; EC50 range class) was over 9.00, the pEC50 [4] was 10.77 and the pEC50 [5] was 10.39. For the same compound, the pEC50 [6, 12] was over 9.00, the pEC50 [6, 15] was 9.75 and the pEC50 [6, 13] was 10.10.
COC[C@@H]1C[C@@H](c2nc3ccc4cc5c(cc4c3[nH]2)OCc2cc(-c3cnc([C@@H]4CCCN4C(=O)[C@@H](NC(=O)OC)C(C)C)[nH]3)ccc2-5)N(C(=O)[C@H](NC(=O)OC)c2ccccc2)C1 [Example MQ, methyl{(1R)-2-[(2S,4R)-2-(9-{2-[(2S)-1-{(2S)-2-[(methoxycarbonyl)amino]-3-methylbutanoyl}pyrrolidin-2-yl)-1H-imidazol-5-yl]-1,11-dihydroisochromeno[4′,3′:6,7]naphtho[1,2-d]imidazol-2-yl}-4-(methoxymethyl)pyrrolidin-1-yl]-2-oxo-phenylethyl}carbamate] showed a pEC50 ([1]; EC50 range class) of over 9.00, a pEC50 [1] of 10.80 and a pEC50 (Q30R in genotype 1a NS5A; EC50 range class) of over 9.00. It also gave a pEC50 (Q30R in genotype 1a NS5A) of 10.64, a pEC50 [2, 7] of over 9.00 and a pEC50 [3, 9] of over 9.00. It also gave a pEC50 [3, 10] of 10.64, a pEC50 [3, 11] of 11.05 and a pEC50 ([4]; EC50 range class) of over 9.00. It also gave a pEC50 [4] of 11.40, a pEC50 [5] of 10.96 and a pEC50 [6, 12] of over 9.00. For the same compound, the pEC50 [6, 15] was 10.02 and the pEC50 [6, 13] was 10.77.
In the case of COC(=O)N[C@H](C(=O)N1CCC[C@H]1c1ncc(-c2ccc3c(c2)COc2cc4c(ccc5nc([C@@H]6C[C@H](C)CN6C(=O)[C@H](NC(=O)OC)c6ccccc6)[nH]c54)cc2-3)[nH]1)C(C)C [Example MY, Methyl {2-[2-{9-[2-(1-{2-[(methoxycarbonyl)amino]-3-methylbutanoyl}pyrrolidin-2-yl)-1H-imidazol-5-yl]-1,11-dihydroisochromeno[4′,3′:6,7]naphtho[1,2-d]imidazol-2-yl}-4-(methyl)pyrrolidin-1-yl]-2-oxo-1-phenylethyl}carbamate], the EC50 [5] was 0.015 nM.
For “Methyl {(2S)-1-[(2S,5S)-2-(5-{2-[(2S,4S)-1-{(2S)-2-[(methoxycarbonyl)amino]-3-methylbutanoyl}-4-methylpyrrolidin-2-yl]-1,11-dihydroisochromeno[4′,3′:6,7]naphtho[1,2-d]imidazol-9-yl}-1H-imidazol-2-yl)-4-methylpyrrolidin-1-yl]-3-methyl-1-oxobutan-2-yl}carbamate [Example ND]”, the pEC50 ([1]; EC50 range class) was over 9.00, the pEC50 [1] was 10.46 and the pEC50 (Q30R in genotype 1a NS5A; EC50 range class) was over 9.00. For the same compound, the pEC50 (Q30R in genotype 1a NS5A) was 10.24, the pEC50 [2, 7] was over 9.00 and the pEC50 [2, 8] was 10.36. It also gave a pEC50 [2, 14] of 10.51, a pEC50 [3, 9] of over 9.00 and a pEC50 [3, 10] of 8.88. The pEC50 [3, 11] was 9.57, the pEC50 ([4]; EC50 range class) was over 9.00 and the pEC50 [4] was 10.85. For the same compound, the pEC50 [5] was 10.62, the pEC50 [6, 12] was over 9.00 and the pEC50 [6, 15] was 8.63. For the same compound, the pEC50 [6, 13] was 9.50.
In the case of COC[C@H]1C[C@@H](c2nc3ccc4cc5c(cc4c3[nH]2)OCc2cc(-c3ccc4nc([C@@H]6CCCN6C(=O)[C@@H](NC(=O)OC)C(C)C)[nH]c4c3)ccc2-5)N(C(=O)[C@H](NC(=O)OC)c2ccccc2)C1 [Example MS], the pEC50 [2, 7] was over 9.00, the pEC50 [2, 8] was 10.70 and the pEC50 [2, 14] was 10.85. It also gave a pEC50 [3, 9] of under 8.30, a pEC50 [3, 10] of 8.02 and a pEC50 ([4]; EC50 range class) of over 9.00. For the same compound, the pEC50 [4] was 11.30, the pEC50 [5] was 11.10 and the pEC50 [6, 12] was under 8.30. The pEC50 [6, 15] was 7.81.
